Non-standard residues stand in square brackets, D forms with d. No end group written: not given here. pS = N[C@@H](COP(=O)(O)O)C(=O)O

Assay [1] deals with T1, 14-3-3σ (Homo sapiens, UniProt P31947).
T1 construct: The full-length 14-3-3 isoforms were used in biophysical assays; His6 (cleaved yes); made in house; host or cells: Escherichia coli NiCo21(DE3)
T1 sequence (P31947 1-248): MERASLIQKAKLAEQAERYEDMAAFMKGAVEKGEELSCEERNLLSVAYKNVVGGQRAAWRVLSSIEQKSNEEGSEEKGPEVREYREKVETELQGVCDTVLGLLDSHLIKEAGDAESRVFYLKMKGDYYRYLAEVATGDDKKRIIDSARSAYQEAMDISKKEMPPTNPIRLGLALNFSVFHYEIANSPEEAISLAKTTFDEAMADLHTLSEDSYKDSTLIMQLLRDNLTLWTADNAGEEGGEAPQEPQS
Kind of assay: Isothermal titration calorimetry (ITC) under reducing conditions, 14-3-3σ. The format is binding. The note with it: FITC-labelled peptide titrated into 14-3-3σ, 18 injections of 2 µl, 25°C, 50 mM Tris pH 7.5, 150 mM NaCl, 5 mM MgCl2, 2 mM 2-mercaptoethanol, 0.05%(v/v) Tween-20. The method, then: (§1) 14-3-3 isoforms γ, τ, σ, ɛ, η, ζ, β (full length) and 14-3-3σΔC (residues 231–248 deleted) were expressed with a His6 tag in Escherichia coli NiCo21(DE3) competent cells from a pPRoeX-Htb vector in 2×TY medium. Purification was carried out by affinity chromatography on nickel columns (HisTrap HP, 5 ml). The tags were cleaved with TEV protease. The proteins were then loaded again onto nickel columns to remove any noncleaved protein. A final purification step was performed by loading the proteins onto a size-exclusion chromatography column (HiLoad 26/600 Superdex 75 pg) equilibrated in 20 mM Tris–HCl pH 7.5, 150 mM NaCl, 2 mM DTT. All purification steps were performed on an ÄKTApure protein-purification system (Cytiva). The full-length 14-3-3 isoforms were used in biophysical assays and the 14-3-3σΔC construct was used for crystallographic purposes. […]
(§2) Fluorescence polarization (FP) binding assays were carried out in Corning 384-well 3575 plates, serially diluting (twofold) the 14-3-3 isoforms in the presence of 10 nM FITC-labelled peptides. […] The data were collected on a PHERAstar FSX plate reader (BMG Labtech) with an excitation wavelength of 485 nm and an emisson wavelength of 520 nm. […] The data were analysed using the MicroCal PEAQ-ITC Analysis Software (Malvern).
In general terms: ITC needs no label: the signal is the heat of the interaction.

Assay [2] deals with T1, 14-3-3σ. As to the kind of experiment: X-ray protein crystallography with 14-3-3σΔC. Particulars: crystal structures with 14-3-3σΔC, PDB 7b13 (SHN3pS542) and 7b15 (SHN3pT869). The method, then:
14-3-3 isoforms γ, τ, σ, ɛ, η, ζ, β (full length) and 14-3-3σΔC (residues 231–248 deleted) were expressed with a His6 tag in Escherichia coli NiCo21(DE3) competent cells from a pPRoeX-Htb vector in 2×TY medium. Purification was carried out by affinity chromatography on nickel columns (HisTrap HP, 5 ml). The tags were cleaved with TEV protease. The proteins were then loaded again onto nickel columns to remove any noncleaved protein. A final purification step was performed by loading the proteins onto a size-exclusion chromatography column (HiLoad 26/600 Superdex 75 pg) equilibrated in 20 mM Tris–HCl pH 7.5, 150 mM NaCl, 2 mM DTT. All purification steps were performed on an ÄKTApure protein-purification system (Cytiva). The full-length 14-3-3 isoforms were used in biophysical assays and the 14-3-3σΔC construct was used for crystallographic purposes.
The peptides SHN3pS542 (LLRSHpS542MPSAAC) and SHN3pT869 (PDRPDpT869EPEPPP) were ordered with a purity of >95% from GenScript in an N-terminally acetylated version and an N-terminally FITC-Ahx-labelled version.
For protein crystallization, a C-terminally truncated version of 14-3-3σ was used (14-3-3σΔC; deletion of the 17 C-terminal amino acids; Schumacher et al., 2010[▸]). […]

The test system of the next assay is 14-3-3 isoforms. As to the kind of experiment: Fluorescence polarization (FP) binding assay, all 14-3-3 isoforms taken together. More on the design: species or system human. Particulars: FITC-labelled peptide 10 nM, only a modest FP signal at the highest concentrations, not possible to calculate Kd values. The method, then: as §1, §2
A further assay concerns the target T2, 14-3-3γ (full length) (human, UniProt P61981 1-247).
T2 construct: 14-3-3 protein gamma, human, full length; Expressed from a pPRoeX-Htb vector; also called 14-3-3 isoform γ; source: E. coli NiCo21(DE3), purified (nickel column, TEV cleavage, second nickel column, SEC)
T2 sequence (looked up): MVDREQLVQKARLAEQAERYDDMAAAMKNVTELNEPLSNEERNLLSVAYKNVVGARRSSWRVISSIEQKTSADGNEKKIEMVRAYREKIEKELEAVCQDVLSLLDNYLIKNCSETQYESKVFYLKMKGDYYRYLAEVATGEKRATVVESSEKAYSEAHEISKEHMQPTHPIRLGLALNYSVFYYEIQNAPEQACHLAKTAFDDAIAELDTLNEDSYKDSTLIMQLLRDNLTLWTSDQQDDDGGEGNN
As to the kind of experiment: ITC; peptide titrated into the cell containing the 14-3-3 protein, 18 injections of 2 µl, 25°C; 50 mM Tris pH 7.5, 150 mM NaCl, 5 mM MgCl2, 2 mM 2-mercaptoethanol, 0.05% Tween-20 (reducing conditions). The note with it: both partners purified.

A further assay addresses T3, 14-3-3σ (full length) (human, UniProt P31947 1-248).
T3 construct: 14-3-3 protein sigma, human, full length; Expressed from a pPRoeX-Htb vector; also called 14-3-3 isoform σ; the σ isoform; source: E. coli NiCo21(DE3), purified (nickel column, TEV cleavage, second nickel column, SEC)
T3 sequence (looked up): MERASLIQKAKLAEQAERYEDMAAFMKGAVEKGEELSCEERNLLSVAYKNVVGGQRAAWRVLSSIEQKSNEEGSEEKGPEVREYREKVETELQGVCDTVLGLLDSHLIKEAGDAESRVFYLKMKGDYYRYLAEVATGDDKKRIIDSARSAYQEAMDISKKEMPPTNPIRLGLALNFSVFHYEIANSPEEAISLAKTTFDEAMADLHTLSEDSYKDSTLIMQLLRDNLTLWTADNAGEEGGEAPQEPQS
The assay is described as above. The note with it: both partners purified.

By Kd is commonly meant the free concentration of one partner at which half of the binding sites on the other are occupied at equilibrium, for simple one-to-one binding. “LLRSHpS542MPSAAC [SHN3pS542-FITC, N-terminally FITC-Ahx-labelled version of SHN3pS542, as used in the FP assay]”: at 14-3-3σ [1], binding was characterised by a dissociation constant (Kd) of 4.8 ± 0.8 µM.
As for “PDRPDpT869EPEPPP [SHN3pT869, synthetic phosphopeptide PDRPDpT869EPEPPP derived from human Schnurri-3 (SHN3)]”, the “polar contacts with 14-3-3σ residues” value at 14-3-3σ [2] is “Polar contacts are established between Glu872 and Glu870 of SHN3pT869 and Asn50, Lys122, Lys49 and Asn175 on the C-terminal side of the peptide and between Asp868 and Pro867 of SHN3pT869 and Asn226 on the N-terminal side of the peptide”. Besides, the “binding to 14-3-3 isoforms (in words)” value with 14-3-3 isoforms is listed as “very weak 14-3-3 binder”.

B1: SHN3pS542 peptide, N-terminally acetylated (peptide)
peptide: Ac-LLRSH[pS]MPSAAC
modifications: also: phosphoserine at 542, position not mapped
notes: Schnurri-3 (SHN3, transcription factor HIVEP3), human, 12-mer around phosphorylated Ser542; also called the acetylated peptide; source: synthetic peptide, bought: GenScript (purity >95%)
As for B1, the equilibrium dissociation constant (Kd) was 0.69 ± 0.15 µM with 14-3-3γ (full length) and 5.8 ± 1.3 µM in the assay with 14-3-3σ (full length).

(Values after PMC8329713, “The identification and structural analysis of potential 14-3-3 interaction sites on the bone regulator protein Schnurri-3” (Acta Crystallographica. Section F, Structural Biology …, 2021).)
